According to patent publication US20230339952A1, “MACROCYCLIC HETEROCYCLES AND USES THEREOF” (Kumquat Biosciences Inc., priority 2022, published 2023):

Experiments:
[1] = biological target: SOS1 (Homo sapiens (Human), UniProt Q07889); assay: Ras-SOS interaction assay (HTRF), K-Ras G13D utilized; type: binding; settings: K-Ras G13D, read-out: SOS1 IC50
Text: For example, the equilibrium interaction of human SOS1 (hSOS1) with human wildtype Kras or K-Ras mutant (e.g., hK-Ras G12C mutant, or hK-Ras G12C) can be assessed as a proxy or an indication for a subject compound's ability to inhibit SOS. Detection of such interaction is achieved by measuring homogenous time-resolved fluorescence resonance energy transfer (HTRF) from (i) a fluorescence resonance energy transfer (FRET) donor (e.g., antiGST-Europium) that is bound to GST-tagged K-Ras G12C to (ii) a FRET acceptor (e.g., anti-6His-XL665) bound to a His-tagged hSOS1.
A Ras working solution is prepared in assay buffer containing typically 10 nM of the protein construct (e.g., GST-tagged hK-Ras G12C) and 2 nM of the FRET donor (e.g., antiGST-Eu(K) from Cisbio, France). A SOS1 working solution is prepared in assay buffer containing typically 10 nM of the protein construct (e.g., His-hSOS1) and 10 nM of the FRET acceptor (e.g., anti-6His-XL665 from Cisbio, France). An inhibitor control solution is prepared in assay buffer containing 10 nM of the FRET acceptor without the SOS1 protein.
A fixed reaction mixture with or without test compound is transferred into a 384-well plate. Ras working solution is added to all wells of the test plate. SOS1 working solution is added to all wells except for those that are subsequently filled with the inhibitor control solution. […] The ratiometric data (i.e., emission 2 divided by emission 1) is used to calculate IC50 values against SOS1 using GraphPad Prism (GraphPad software).

[2] = system: NCI-H1975 (ATCC CRL-5908) cell line comprising an EGFR T790M L858R double mutation; assay: EGFR-SOS cellular inhibition assay (CellTiter-Glo cell proliferation); type: cell-based; settings: Homo sapiens, 120 h; NCI-H1975 cell proliferation, approximately 5 days; read-out: H1975 IC50
Experimental: A CellTiter-Glo (CTG) luminescent based assay (Promega) is used to assess growth of the cells, as a measurement of the ability of the compounds herein to inhibit EGFR signaling in the cells. […] The day after plating, cells are treated with a dilution series (e.g., a 9 point 3-fold dilution series) of the compounds herein (e.g., approximately 125 μL final volume per well).

Sequence of SOS1 (Q07889 564-1049): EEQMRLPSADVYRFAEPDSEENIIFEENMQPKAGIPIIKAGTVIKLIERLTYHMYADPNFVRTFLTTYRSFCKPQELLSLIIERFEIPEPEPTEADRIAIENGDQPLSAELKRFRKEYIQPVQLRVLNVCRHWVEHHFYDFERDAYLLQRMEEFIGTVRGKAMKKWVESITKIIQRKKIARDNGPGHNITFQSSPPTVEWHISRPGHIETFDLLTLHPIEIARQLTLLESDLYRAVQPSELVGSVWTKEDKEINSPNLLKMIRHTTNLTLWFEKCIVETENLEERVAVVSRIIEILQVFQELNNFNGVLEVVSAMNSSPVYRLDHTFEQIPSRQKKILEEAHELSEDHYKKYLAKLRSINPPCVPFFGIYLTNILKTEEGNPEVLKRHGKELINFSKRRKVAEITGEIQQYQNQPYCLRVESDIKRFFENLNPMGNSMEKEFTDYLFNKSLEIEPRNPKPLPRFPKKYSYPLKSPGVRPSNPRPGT

Q: `Cc1nc2c3cc(C4(C#N)CC4)c(=O)n(c3n1)CC/C=C\COCC(F)(F)c1cccc(c1F)[C@@H](C)N2` [Compound 3, 1-((3R,Z)-4^2,5,5-trifluoro-1^2,3-dimethyl-1^7-oxo-1^7,1^8-dihydro-7-oxa-2-aza-1(4,8)-pyrido[2,3-d]pyrimidina-4(1,3)-benzenacyclododecaphan-9-en-1^6-yl)cyclopropane-1-carbonitrile] was tested. Which IC50 [1] did it give?
A: 100 to 5000 nM

Q: And the IC50 [2]?
A: 1000 to 10000 nM

Q: `C[C@H]1Nc2ncnc3c2cc(C2(C#N)CCS(=O)(=O)CC2)c(=O)n3CCCCCN2CCC(CC2)CCC(F)(F)c2cccc1c2` [Compound 8, 4-((3R)-5,5-difluoro-3-methyl-1^7-oxo-1^7,1^8-dihydro-2-aza-1(4,8)-pyrido[2,3-d]pyrimidina-8(4,1)-piperidina-4(1,3)-benzenacyclotridecaphane-1^6-yl)tetrahydro-2H-thiopyran-4-carbonitrile 1,1-dioxide] was tested. Which IC50 [1] did it give?
A: < 100 nM

Q: And the IC50 [2]?
A: < 1000 nM

Q: With `C[C@H]1Nc2ncnc3c2cc(C2(C#N)CC2)c(=O)n3CCCNC(=O)CCN2CCC(CC2)C(F)(F)c2cccc1c2F` [Compound 11, 1-((4R)-3^2,2,2-trifluoro-4-methyl-6^7,11-dioxo-6^7,6^8-dihydro-5,10-diaza-6(4,8)-pyrido[2,3-d]pyrimidina-1(4,1)-piperidina-3(1,3)-benzenacyclotridecaphane-6^6-yl)cyclopropane-1-carbonitrile] as the compound, how does the IC50 [1] read?
A: < 100 nM

Q: What about the IC50 [2] of the same compound?
A: < 1000 nM

Q: For `Cc1nc2c3cc(C4CCS(=O)(=O)CC4)c(=O)n(c3n1)CCCC/C=C\CC(C)(O)C(F)(F)c1cccc(c1)[C@@H](C)N2` (stereo partly drawn) [Compound 12, (3R,Z)-1^6-(1,1-dioxidotetrahydro-2H-thiopyran-4-yl)-5,5-difluoro-6-hydroxy-1^2,3,6-trimethyl-1^7,1^8-dihydro-2-aza-1(4,8)-pyrido[2,3-d]pyrimidina-4(1,3)-benzenacyclotridecaphan-8-en-1^7-one], which IC50 [1] is on record?
A: 100 to 5000 nM

Q: And the IC50 [2]?
A: < 1000 nM

Q: Which IC50 [1] does the source give for `C[C@H]1Nc2ncnc3c2cc(C2(C#N)CC2)c(=O)n3CCCCCCN2CCC(CC2)CC(F)(F)c2cccc1c2F` [Compound 15, 1-((3R)-4^2,5,5-trifluoro-3-methyl-1^7-oxo-1^7,1^8-dihydro-2-aza-1(4,8)-pyrido[2,3-d]pyrimidina-7(4,1)-piperidina-4(1,3)-benzenacyclotridecaphane-1^6-yl)cyclopropane-1-carbonitrile] here?
A: < 100 nM

Q: And the IC50 [2]?
A: < 1000 nM

Q: With `CC(C)N1CCN(c2cc3c4ncnc3n(c2=O)CCCCCCN2CCC(CC2)CC(F)(F)c2cccc(c2F)[C@@H](C)N4)CC1` [Compound 16, (3R)-4^2,5,5-trifluoro-1^6-(4-isopropylpiperazin-1-yl)-3-methyl-1^7,1^8-dihydro-2-aza-1(4,8)-pyrido[2,3-d]pyrimidina-7(4,1)-piperidina-4(1,3)-benzenacyclotridecaphan-1^7-one] as the compound, how does the IC50 [1] read?
A: < 100 nM

Q: And the IC50 [2]?
A: < 1000 nM

Q: What does the source list for `C[C@H]1Nc2ncnc3c2cc(N2CCN(C4CCOCC4)CC2)c(=O)n3CCCCCCCN2CCC(CC2)C(F)(F)c2cccc1c2F` [Compound 19, (4R)-3^2,2,2-trifluoro-4-methyl-6^6-(4-(tetrahydro-2H-pyran-4-yl)piperazin-1-yl)-6^7,68-dihydro-5-aza-6(4,8)-pyrido[2,3-d]pyrimidina-1(4,1)-piperidina-3(1,3)-benzenacyclotridecaphan-6^7-one]?
A: IC50 [1]: < 100 nM; IC50 [2]: < 1000 nM

Q: Which IC50 [1] does the source give for `CC1CCCCCn2c(=O)c(C3(C#N)CC3)cc3c(ncnc32)N[C@H](C)c2cccc(c2F)C(F)(F)C2CCN(CC2)C1` (stereo partly drawn) [Compound 20, 1-((4R)-3^2,2,2-trifluoro-4,12-dimethyl-6^7-oxo-6^7,6^8-dihydro-5-aza-6(4,8)-pyrido[2,3-d]pyrimidina-1(4,1)-piperidina-3(1,3)-benzenacyclotridecaphane-6^6-yl)cyclopropane-1-carbonitrile] here?
A: < 100 nM

Q: What about the IC50 [2] of the same compound?
A: < 1000 nM

Q: `CC(C)N1CCN(c2cc3c4ncnc3n(c2=O)CCCCCCCN2CCC(CC2)C(F)(F)c2cccc(c2F)[C@@H](C)N4)CC1` [Compound 21, (4R)-3^2,2,2-trifluoro-6^6-(4-isopropylpiperazin-1-yl)-4-methyl-6^7,6^8-dihydro-5-aza-6(4,8)-pyrido[2,3-d]pyrimidina-1(4,1)-piperidina-3(1,3)-benzenacyclotridecaphan-6^7-one] was tested. Which IC50 [1] did it give?
A: < 100 nM

Q: And the IC50 [2]?
A: < 1000 nM

Q: `C[C@H]1Nc2ncnc3c2cc(C2(C#N)CCS(=O)(=O)CC2)c(=O)n3CCCCCCN2CCC(CC2)CC(F)(F)c2cccc1c2F` [Compound 23, 4-((3R)-4^2,5,5-trifluoro-3-methyl-1^7-oxo-1^7,1^8-dihydro-2-aza-1(4,8)-pyrido[2,3-d]pyrimidina-7(4,1)-piperidina-4(1,3)-benzenacyclotridecaphane-1^6-yl)tetrahydro-2H-thiopyran-4-carbonitrile 1,1-dioxide] was tested. Which IC50 [1] did it give?
A: < 100 nM

Q: And the IC50 [2]?
A: < 1000 nM

Q: `CC1CC/C=C\CCn2c(=O)c(C3(C#N)CC3)cc3c(ncnc32)N[C@H](C)c2cccc(c2F)C(F)(F)C2CCN1CC2` (stereo partly drawn) [Compound 24, 1-((4R,Z)-3^2,2,2-trifluoro-4,13-dimethyl-6^7-oxo-6^7,6^8-dihydro-5-aza-6(4,8)-pyrido[2,3-d]pyrimidina-1(4,1)-piperidina-3(1,3)-benzenacyclotridecaphan-9-en-6^6-yl)cyclopropane-1-carbonitrile] was tested. Which IC50 [1] did it give?
A: < 100 nM

Q: And the IC50 [2]?
A: < 1000 nM

Q: For `C[C@H]1Nc2ncnc3c2cc(C2(C#N)CC2)c(=O)n3CCCC(=O)N(C)CCN2CCC(CC2)C(F)(F)c2cccc1c2` [Compound 27, 1-((4R)-2,2-difluoro-4,11-dimethyl-6^7,10-dioxo-6^7,6^8-dihydro-5,11-diaza-6(4,8)-pyrido[2,3-d]pyrimidina-1(4,1)-piperidina-3(1,3)-benzenacyclotridecaphane-6^6-yl)cyclopropane-1-carbonitrile], which IC50 [1] is on record?
A: < 100 nM

Q: And the IC50 [2]?
A: < 1000 nM

Q: With `C[C@H]1Nc2ncnc3c2cc(C2CCS(=O)(=O)CC2)c(=O)n3CCCCCCC(=O)N2CCC(CC2)C(F)(F)c2cccc1c2F` [Compound 28, (4R)-6^6-(1,1-dioxidotetrahydro-2H-thiopyran-4-yl)-3^2,2,2-trifluoro-4-methyl-6^7,6^8-dihydro-5-aza-6(4,8)-pyrido[2,3-d]pyrimidina-1(4,1)-piperidina-3(1,3)-benzenacyclotridecaphane-6^7,13-dione] as the compound, how does the IC50 [1] read?
A: < 100 nM

Q: And the IC50 [2]?
A: < 1000 nM

Q: With `CC1CC/C=C\CCn2c(=O)c(C3(C#N)CC3)cc3c(ncnc32)N[C@H](C)c2cccc(c2)C(F)(F)C2CCN1CC2` (stereo partly drawn) [Compound 100, 1-((4R,Z)-2,2-difluoro-4,13-dimethyl-6^7-oxo-6^7,6^8-dihydro-5-aza-6(4,8)-pyrido[2,3-d]pyrimidina-1(4,1)-piperidina-3(1,3)-benzenacyclotridecaphan-9-en-6^6-yl)cyclopropane-1-carbonitrile] as the compound, how does the IC50 [2] read?
A: < 1000 nM

Q: For `COc1cc2nc(C)nc3c2cc1OCCCCOCCOCCOCCNCc1ccccc1C1=CC=C(S1)C(C)N3` (stereo not drawn) [Compound 150, 5^7-methoxy-5^2,3-dimethyl-6,11,14,17-tetraoxa-4,20-diaza-5(4,6)-quinazolina-2(2,5)-thiophena-1(1,2)-benzenacyclohenicosaphane], which IC50 [1] is on record?
A: 100 to 5000 nM

Q: How did the IC50 [1] turn out when `C[C@H]1Nc2ncnc3cc(c(N4CCS(=O)(=O)CC4)cc23)OCCCCOCCCN2CCC(CC2)C(F)(F)c2cccc1c2` [Compound 192, (R)-4-(2,2-difluoro-4-methyl-7,12-dioxa-5-aza-6(4,7)-quinazolina-1(4,1)-piperidina-3(1,3)-benzenacyclopentadecaphane-6^6-yl)thiomorpholine 1,1-dioxide] was run?
A: < 100 nM

Q: With `C[C@H]1Nc2ncnc3c(cc(N4CCS(=O)(=O)CC4)cc23)OCCCCCCN2CCC(CC2)C(F)(F)c2cccc1c2` [Compound 193, (R)-4-(2,2-difluoro-4-methyl-7-oxa-5-aza-6(4,8)-quinazolina-1(4,1)-piperidina-3(1,3)-benzenacyclotridecaphane-6^6-yl)thiomorpholine 1,1-dioxide] as the compound, how does the IC50 [1] read?
A: < 100 nM

Q: `C[C@H]1Nc2ncnc3c2cc(C2CCS(=O)(=O)CC2)c(=O)n3CCCOCCCN2CCC(CC2)CC(F)(F)c2cccc1c2` [Compound 194, (3R)-1^6-(1,1-dioxidotetrahydro-2H-thiopyran-4-yl)-5,5-difluoro-3-methyl-1^7,1^8-dihydro-11-oxa-2-aza-1(4,8)-pyrido[2,3-d]pyrimidina-7(4,1)-piperidina-4(1,3)-benzenacyclotetradecaphan-1^7-one] was tested. Which IC50 [1] did it give?
A: < 100 nM

Q: With `CC(C)N1CCN(c2cc3c4ncnc(c4c2)N[C@H](C)c2cccc(c2)C(F)(F)C2CCN(CCCCCCO3)CC2)CC1` [Compound 195, (R)-2,2-difluoro-6^6-(4-isopropylpiperazin-1-yl)-4-methyl-7-oxa-5-aza-6(4,8)-quinazolina-1(4,1)-piperidina-3(1,3)-benzenacyclotridecaphane] as the compound, how does the IC50 [1] read?
A: < 100 nM

Q: How did the IC50 [1] turn out when `Cc1nnc2c3cc(N4CCOCC4)cc(c13)OCCCCCCN1CCC(CC1)C(F)(F)c1cccc(c1)[C@@H](C)N2` [Compound 196, (R)-2,2-difluoro-6^4,4-dimethyl-6^7-morpholino-7-oxa-5-aza-6(1,5)-phthalazina-1(4,1)-piperidina-3(1,3)-benzenacyclotridecaphane] was run?
A: < 100 nM
